Test results from patent US20240366589A1, “NHE3-BINDING COMPOUNDS AND METHODS FOR INHIBITING PHOSPHATE TRANSPORT” (Ardelyx, Inc., priority 2013, published 2024).

Assays:
[1] = test system: absorption of sodium from the intestinal lumen; experiment: Fecal form score (FFS) 16 h after oral dose in rats; format: in vivo, rat; settings: oral gavage, 16 h post-dose, scale 1-5
Procedure, shortened: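 Fecal form was scored at 16 h post-dose on a 1–5 wetness scale (normal pellet to liquid stream), with two independent observations averaged across six rats per group. Animals were 8-week-old Sprague-Dawley rats given test compound or water orally in the late afternoon and kept in metabolic cages.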

[2] = molecular target: T1, Human NHE3 (Homo sapiens, UniProt P48764); experiment: Cell-based NHE3 activity under prompt conditions (OK cells, BCECF pH recovery), human NHE3; settings: prompt conditions
T1 construct: expressed in transfected cells; host or cells: Opossum kidney (OK) cells (ATCC), electroporation
T1 sequence (P48764 26-834): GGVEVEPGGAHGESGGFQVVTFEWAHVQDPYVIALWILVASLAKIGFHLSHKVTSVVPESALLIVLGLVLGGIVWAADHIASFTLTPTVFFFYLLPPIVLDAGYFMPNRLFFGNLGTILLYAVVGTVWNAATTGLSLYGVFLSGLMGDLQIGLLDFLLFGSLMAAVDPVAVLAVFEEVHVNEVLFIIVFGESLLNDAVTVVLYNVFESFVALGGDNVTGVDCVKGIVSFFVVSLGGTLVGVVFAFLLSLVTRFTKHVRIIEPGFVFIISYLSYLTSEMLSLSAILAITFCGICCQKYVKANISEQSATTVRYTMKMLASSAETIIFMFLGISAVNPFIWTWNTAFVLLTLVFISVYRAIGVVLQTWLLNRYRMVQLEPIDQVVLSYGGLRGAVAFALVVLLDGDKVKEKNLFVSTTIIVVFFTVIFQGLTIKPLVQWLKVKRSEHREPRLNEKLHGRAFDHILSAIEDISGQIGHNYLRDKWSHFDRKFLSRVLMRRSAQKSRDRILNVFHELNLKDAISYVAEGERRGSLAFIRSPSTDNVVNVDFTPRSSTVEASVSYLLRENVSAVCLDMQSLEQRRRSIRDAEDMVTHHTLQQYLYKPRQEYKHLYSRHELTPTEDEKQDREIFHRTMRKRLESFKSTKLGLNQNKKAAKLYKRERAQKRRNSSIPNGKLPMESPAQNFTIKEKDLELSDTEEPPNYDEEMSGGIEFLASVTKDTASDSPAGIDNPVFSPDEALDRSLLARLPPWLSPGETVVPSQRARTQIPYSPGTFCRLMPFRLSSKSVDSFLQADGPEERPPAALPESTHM
Procedure, shortened: (§1)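 Opossum kidney cells transfected with rat or human NHE3 underwent ammonium prepulse (20 mM NH4Cl, pH 7.4, 30 min) then 10 min in Na+-free buffer, room temperature.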

[3] = molecular target: T2, Rat NHE3 (Rattus norvegicus, UniProt P26433); experiment: Cell-based NHE3 activity under prompt conditions (OK cells, BCECF pH recovery), rat NHE3; settings: prompt conditions
T2 construct: expressed in transfected cells; host or cells: Opossum kidney (OK) cells (ATCC), electroporation
Procedure, shortened: as §1

[4] = test system: phosphorus and calcium levels in the urine of rats; experiment: Urinary excretion of phosphate and calcium in rats (16 h overnight urine); format: in vivo, rat; settings: rats, oral gavage, 16 h post-dose
[5] = test system: absorption of sodium from the intestinal lumen; experiment: Inhibition of intestinal sodium absorption: urinary sodium (uNa) 16 h after single oral dose in rats; format: in vivo, rat; settings: oral gavage, 16 h post-dose
Procedure, shortened: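 Urinary sodium mass over the 16 h after one oral gavage dose, measured by cation-exchange ion chromatography, reported as percent of water-vehicle group; ANOVA plus Dunnett's post hoc test. Groups of six 8-week-old Sprague-Dawley rats, housed individually in metabolic cages post-dose, fed and watered freely.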

T2 sequence (P26433 29-831): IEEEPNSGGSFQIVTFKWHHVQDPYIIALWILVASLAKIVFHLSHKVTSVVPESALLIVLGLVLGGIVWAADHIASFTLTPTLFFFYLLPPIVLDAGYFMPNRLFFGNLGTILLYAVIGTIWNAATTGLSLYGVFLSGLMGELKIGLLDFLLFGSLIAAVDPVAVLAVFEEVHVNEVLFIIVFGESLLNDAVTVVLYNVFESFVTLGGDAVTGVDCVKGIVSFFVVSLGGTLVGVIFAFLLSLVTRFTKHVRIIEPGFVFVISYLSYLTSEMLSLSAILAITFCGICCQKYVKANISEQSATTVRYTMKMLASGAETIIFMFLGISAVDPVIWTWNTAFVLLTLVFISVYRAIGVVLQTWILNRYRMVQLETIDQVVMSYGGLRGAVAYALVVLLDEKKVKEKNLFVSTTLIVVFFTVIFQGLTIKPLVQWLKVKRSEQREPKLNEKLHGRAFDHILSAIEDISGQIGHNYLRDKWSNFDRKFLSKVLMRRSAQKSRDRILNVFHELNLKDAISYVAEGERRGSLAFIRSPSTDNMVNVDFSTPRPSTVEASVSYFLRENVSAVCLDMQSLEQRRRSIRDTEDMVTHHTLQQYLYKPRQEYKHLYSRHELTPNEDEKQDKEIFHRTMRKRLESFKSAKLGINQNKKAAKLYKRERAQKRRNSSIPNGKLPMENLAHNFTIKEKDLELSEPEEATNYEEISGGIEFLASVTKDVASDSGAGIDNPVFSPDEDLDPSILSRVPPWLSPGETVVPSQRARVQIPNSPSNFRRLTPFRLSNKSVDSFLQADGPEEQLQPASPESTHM

| SMILES | Fecal Form Score average ([1]; dose 1 mg/kg) | Fecal Form Score average ([1]; dose 10 mg/kg) | Prompt Human NHE3 pIC50 [2] | Prompt Rat NHE3 pIC50 [3] | Urine P % of control ([4]; dose 1 mg/kg) [%] | Urine P % of control ([4]; dose 10 mg/kg) [%] | Urine Na % of control ([5]; dose 1 mg/kg) [%] | Urine Na % of control ([5]; dose 10 mg/kg) [%] | Fecal Form Score average ([1]; dose 30 mg/kg) | Urine P % of control ([4]; dose 30 mg/kg) [%] | Urine Na % of control ([5]; dose 30 mg/kg) [%] |
| --- | --- | --- | --- | --- | --- | --- | --- | --- | --- | --- | --- |
| CN1Cc2c(Cl)cc(Cl)cc2[C@H](c2cccc(S(=O)(=O)NCCOCCOCCOCCN)c2)C1 [compound 22] | 1 | 2 | 6.95 | 7.34 | 64 | 40 | 91 | 19 |  |  |  |
| N=C(N)Nc1nc(-c2cccc(N3CCN(CCOCCOCCOCCNC(=O)CCOCCOCCOCCOCCOCCC(=O)NCCOCCOCCOCCN4CCN(c5cccc(-c6nc(NC(=N)N)nc7ccc(Cl)cc67)c5)CC4)CC3)c2)c2cc(Cl)ccc2n1 [compound 23] |  | 1 | 8.55 | 6.87 |  | 95 |  | 73 |  |  |  |
| N=C(N)Nc1nc(-c2ccc(N3CCN(CCOCCOCCOCCNC(=O)CCOCCOCCOCCOCCOCCC(=O)NCCOCCOCCOCCN4CCN(c5ccc(-c6nc(NC(=N)N)nc7ccc(Cl)cc67)cc5)CC4)CC3)cc2)c2cc(Cl)ccc2n1 [compound 24] |  | 1 | 8.58 | 7.68 |  | 80 |  | 100 | 3 | 70 | 27 |
| CN1Cc2c(Cl)cc(Cl)cc2[C@H](c2cccc(S(=O)(=O)NCCOCCOCCOCCNC(=O)COCC(=O)NCCOCCOCCOc3cccc(-c4nc(NC(=N)N)nc5ccc(Cl)cc45)c3)c2)C1 [compound 25] |  | 1 | 6.60 | 6.85 |  | 150 |  | 87 |  |  |  |
| C/C(=C\c1cc(F)c(Oc2ccc(S(=O)(=O)NCCOCCOCCOCCNC(=O)OCCOCCOCCOC(=O)NCCOCCOCCOCCNS(=O)(=O)c3ccc(Oc4c(F)cc(/C=C(\C)C(=O)N=C(N)N)cc4F)cc3)cc2)c(F)c1)C(=O)N=C(N)N [compound 26] |  | 1 | 7.70 | 7.50 |  | 77 |  | 78 |  |  |  |
| C/C(=C\c1cc(F)c(Oc2ccc(S(=O)(=O)NCCOCCOCCOCCNC(=O)CN(CCN(CC(=O)O)CC(=O)NCCOCCOCCOCCNS(=O)(=O)c3ccc(Oc4c(F)cc(/C=C(\C)C(=O)N=C(N)N)cc4F)cc3)CC(=O)O)cc2)c(F)c1)C(=O)N=C(N)N [compound 27] |  | 1 | 8.40 | 7.50 |  | 91 |  | 51 |  |  |  |
| NC(N)=Nc1nc(-c2cccc(N3CCN(CCOCCOCCNC(=O)NCCOCCOCCNC(=O)NCCCCNC(=O)NCCOCCOCCNC(=O)NCCOCCOCCN4CCN(c5cccc(-c6nc(N=C(N)N)nc7ccc(Cl)cc67)c5)CC4)CC3)c2)c2cc(Cl)ccc2n1 [compound 28] |  | 1 | 8.10 | 7.60 |  | 129 |  | 83 |  |  |  |
| C/C(=C\c1cc(F)c(Oc2ccc(S(=O)(=O)NCCOCCOCCOCCNC(=O)NCCCCNC(=O)NCCOCCOCCOCCNS(=O)(=O)c3ccc(Oc4c(F)cc(/C=C(\C)C(=O)N=C(N)N)cc4F)cc3)cc2)c(F)c1)C(=O)N=C(N)N [compound 29] |  | 1 | 8.10 | 7.50 |  | 102 |  | 92 |  |  |  |
| C/C(=C\c1cc(F)c(Oc2ccc(S(=O)(=O)NCCOCCOCCOCCNC(=O)N(C)CCCCN(C)C(=O)NCCOCCOCCOCCNS(=O)(=O)c3ccc(Oc4c(F)cc(/C=C(\C)C(=O)N=C(N)N)cc4F)cc3)cc2)c(F)c1)C(=O)N=C(N)N [compound 30] |  | 1 | 8.40 | 7.80 |  | 104 |  | 100 |  |  |  |
| C/C(=C\c1cc(F)c(Oc2ccc(S(=O)(=O)NCCOCCOCCOCCNC(=O)N3CCN(C(=O)NCCOCCOCCOCCNS(=O)(=O)c4ccc(Oc5c(F)cc(/C=C(\C)C(=O)N=C(N)N)cc5F)cc4)CC3)cc2)c(F)c1)C(=O)N=C(N)N [compound 31] |  | 1 | 7.70 | 7.70 |  | 81 |  | 96 |  |  |  |
| N=C(N)Nc1nc(-c2cccc(N3CCN(CCOCCOCCOCCNC(=O)CCOCCOCCOCCOCCOCCOCCOCCC(=O)NCCOCCOCCOCCN4CCN(c5cccc(-c6nc(NC(=N)N)nc7ccc(Cl)cc67)c5)CC4)CC3)c2)c2cc(Cl)ccc2n1 [compound 32] |  | 1 | 8.40 | 7.30 |  | 122 |  | 128 |  |  |  |
| CN(CC(=O)NCCOCCOCCNC(=O)NCCOCCOCCN1CCN(c2cccc(-c3nc(NC(=N)N)nc4ccc(Cl)cc34)c2)CC1)CC(=O)NCCOCCOCCNC(=O)NCCOCCOCCN1CCN(c2cccc(-c3nc(NC(=N)N)nc4ccc(Cl)cc34)c2)CC1 [compound 33] |  | 1 | 7.90 | 7.40 |  | 117 |  | 98 |  |  |  |
| CN(CC(=O)NCCOCCOCCNC(=O)NCCOCCOCCOCCOc1ccc(-c2nc(NC(=N)N)nc3ccc(Cl)cc23)cc1)CC(=O)NCCOCCOCCNC(=O)NCCOCCOCCOCCOc1ccc(-c2nc(NC(=N)N)nc3ccc(Cl)cc23)cc1 [compound 34] |  | 1 | 8.20 | 7.90 |  | 72 |  | 76 |  |  |  |
| N=C(N)Nc1nc(-c2ccc(OCCOCCOCCOCCNC(=O)NCCOCCOCCNC(=O)CN(CCN(CC(=O)O)CC(=O)NCCOCCOCCNC(=O)NCCOCCOCCOCCOc3ccc(-c4nc(NC(=N)N)nc5ccc(Cl)cc45)cc3)CC(=O)O)cc2)c2cc(Cl)ccc2n1 [compound 35] |  | 1 | 8.30 | 8.00 |  | 57 |  | 65 |  |  |  |
| N=C(N)Nc1nc(-c2ccc(OCCOCCOCCOCCNC(=O)NCCOCCOCCNC(=O)NCCCCNC(=O)NCCOCCOCCNC(=O)NCCOCCOCCOCCOc3ccc(-c4nc(NC(=N)N)nc5ccc(Cl)cc45)cc3)cc2)c2cc(Cl)ccc2n1 [compound 36] |  | 1 | 8.00 | 7.60 |  | 86 |  | 85 |  |  |  |
| N=C(N)Nc1nc(-c2ccc(OCCOCCOCCOCCN)cc2)c2cc(Cl)ccc2n1 [compound 37] |  | 1 | 7.50 | 7.50 |  | 101 |  | 63 |  |  |  |
